ChEMBL document CHEMBL1152068, “A study of 3-amino-N-hydroxypropanesulfonamide derivatives as potential GABAB agonists and their fragmentation to 3-aminopropanesulfinic acid” (Bioorg Med Chem Lett, 1996)

Experiments:
[1] = molecular target: GABA-A receptor; anion channel; experiment: Binding affinity against Gamma-aminobutyric acid A receptor in rat brain synaptosomes after 30 minutes; format: subcellular
GABA B receptor = GABA B receptor (Rattus norvegicus, UniProt O88871+Q9Z0U4); experiment: Binding affinity against Gamma-aminobutyric acid type B receptor in rat brain synaptosomes after 30 minutes; format: subcellular
Chain of GABA B receptor (Q9Z0U4 whole entry): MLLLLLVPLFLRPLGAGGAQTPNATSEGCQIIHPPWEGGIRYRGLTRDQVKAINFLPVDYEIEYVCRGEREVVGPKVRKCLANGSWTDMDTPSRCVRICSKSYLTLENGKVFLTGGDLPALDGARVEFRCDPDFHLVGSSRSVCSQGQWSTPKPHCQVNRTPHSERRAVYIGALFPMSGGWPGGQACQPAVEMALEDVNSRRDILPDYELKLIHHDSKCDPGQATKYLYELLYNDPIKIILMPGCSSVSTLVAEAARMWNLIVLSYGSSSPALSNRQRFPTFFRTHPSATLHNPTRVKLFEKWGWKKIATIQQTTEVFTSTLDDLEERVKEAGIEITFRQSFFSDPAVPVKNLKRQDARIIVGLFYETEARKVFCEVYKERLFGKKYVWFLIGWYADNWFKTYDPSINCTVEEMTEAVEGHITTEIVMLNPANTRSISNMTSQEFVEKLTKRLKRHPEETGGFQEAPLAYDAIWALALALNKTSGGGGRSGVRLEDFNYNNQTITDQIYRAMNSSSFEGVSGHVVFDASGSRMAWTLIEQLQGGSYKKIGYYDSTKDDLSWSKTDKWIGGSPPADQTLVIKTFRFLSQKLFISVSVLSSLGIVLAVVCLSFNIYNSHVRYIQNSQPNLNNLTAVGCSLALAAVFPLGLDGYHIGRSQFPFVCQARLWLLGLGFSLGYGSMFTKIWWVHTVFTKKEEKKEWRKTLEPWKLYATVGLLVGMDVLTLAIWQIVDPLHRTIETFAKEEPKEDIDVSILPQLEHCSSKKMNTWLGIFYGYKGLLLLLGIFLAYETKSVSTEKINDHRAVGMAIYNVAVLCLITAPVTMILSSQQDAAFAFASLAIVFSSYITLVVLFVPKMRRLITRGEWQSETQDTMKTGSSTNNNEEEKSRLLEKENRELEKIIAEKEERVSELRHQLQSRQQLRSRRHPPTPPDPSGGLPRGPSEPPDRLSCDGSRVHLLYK
Chain of GABA B receptor (O88871 whole entry): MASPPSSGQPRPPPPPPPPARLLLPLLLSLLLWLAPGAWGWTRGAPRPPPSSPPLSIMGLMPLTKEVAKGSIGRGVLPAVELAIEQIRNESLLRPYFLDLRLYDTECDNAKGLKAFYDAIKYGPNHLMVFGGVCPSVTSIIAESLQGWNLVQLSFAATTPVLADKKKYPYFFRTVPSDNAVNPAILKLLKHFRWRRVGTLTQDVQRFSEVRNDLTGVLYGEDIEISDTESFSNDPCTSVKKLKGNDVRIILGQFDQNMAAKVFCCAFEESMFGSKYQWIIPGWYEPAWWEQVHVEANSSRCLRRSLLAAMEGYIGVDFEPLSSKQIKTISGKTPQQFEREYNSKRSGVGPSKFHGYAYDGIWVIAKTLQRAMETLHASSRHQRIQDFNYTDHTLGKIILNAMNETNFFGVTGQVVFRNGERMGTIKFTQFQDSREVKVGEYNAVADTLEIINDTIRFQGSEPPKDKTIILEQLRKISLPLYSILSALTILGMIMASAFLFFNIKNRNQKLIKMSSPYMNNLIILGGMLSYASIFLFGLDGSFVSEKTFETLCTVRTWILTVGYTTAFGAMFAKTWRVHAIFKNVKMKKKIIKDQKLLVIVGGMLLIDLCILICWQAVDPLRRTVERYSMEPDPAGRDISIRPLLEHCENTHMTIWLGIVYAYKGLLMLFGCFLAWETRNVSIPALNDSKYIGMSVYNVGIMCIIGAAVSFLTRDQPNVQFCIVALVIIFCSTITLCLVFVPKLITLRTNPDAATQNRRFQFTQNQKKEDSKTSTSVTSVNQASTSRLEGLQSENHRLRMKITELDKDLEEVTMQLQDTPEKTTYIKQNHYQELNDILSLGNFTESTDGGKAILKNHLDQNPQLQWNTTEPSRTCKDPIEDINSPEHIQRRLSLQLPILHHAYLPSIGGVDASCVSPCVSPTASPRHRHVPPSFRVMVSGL

Cavia porcellus [2] = experiment: Inhibitory effect on bronchospasm caused by vagal nerve stimulation (EFS) in anesthetized, mechanically ventilated guinea-pigs at 3 mg/kg after 10 minutes; format: functional; conditions: Bronchiole
Cavia porcellus [3] = species: Cavia porcellus; experiment: Compound was tested for its effect on EFS stimulated neuronal cholinergic contractions of guinea pig tracheal rings after 10 minutes; format: functional; conditions: Trachea
[4] = system: GABA-A receptor; anion channel; experiment: Binding affinity against Gamma-aminobutyric acid A receptor in rat brain synaptosomes after 30 minutes (inactive); format: subcellular

NCCCS(=O)(=O)N(O)CC(=O)O
IC50 [1]: 0.62 µM | IC50 (GABA B receptor): 0.08 µM

NCCCS(=O)(=O)NO
IC50 [1]: 2 µM | IC50 (GABA B receptor): 0.28 µM | inhibition in vivo at 3 mg/kg (Cavia porcellus [2]): 0% | IC50 (Cavia porcellus [3]): 16 µM

NCCCS(=O)(=O)N(O)Cc1ccccc1
IC50 [1]: 0.23 µM | IC50 (GABA B receptor): 0.04 µM | inhibition in vivo at 3 mg/kg (Cavia porcellus [2]): 17% | IC50 (Cavia porcellus [3]): 4.2 µM

CN(O)S(=O)(=O)CCCN
IC50 [1]: 0.28 µM | IC50 (GABA B receptor): 0.04 µM | inhibition in vivo at 3 mg/kg (Cavia porcellus [2]): 17% | IC50 (Cavia porcellus [3]): 2.6 µM

NCC(CC(=O)O)c1ccc(Cl)cc1 (racemic) [BACLOFEN]
inhibition in vivo at 3 mg/kg (Cavia porcellus [2]): 75% | IC50 (Cavia porcellus [3]): 6.4 µM | IC50 [4]: Not Active

NCCCS(=O)O [HOMOHYPOTAURINE]
IC50 [1]: 0.47 µM | IC50 (GABA B receptor): 0.06 µM | inhibition in vivo at 3 mg/kg (Cavia porcellus [2]): 25% | IC50 (Cavia porcellus [3]): 1.7 µM

NCCCS(=O)(=O)O [TRAMIPROSATE]
IC50 [1]: 0.3 µM | IC50 (GABA B receptor): 30 µM
